Assay results as given in patent US7074789B2, “Kinase inhibitors” (Amgen Inc., priority 1999, dated 2006).

What was measured:
Assay type in all cases: biochemical
Lck = target: T1, Lck (Homo sapiens, UniProt P06239); assay: Kinase inhibition assay (33P transfer), Lck; conditions: Table 3; read-out: Lck-1
T1 construct: Kinases are expressed as either kinase domains or full length constructs; made in house
Procedure, shortened: (§1)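 Each kinase, expressed as a GST- or polyHis-tagged domain or full-length protein, phosphorylated plate-attached poly(Glu,Tyr) 4:1 or poly(Arg,Ser) 3:1 using 33P-ATP. Bound radioactivity was measured by scintillation after a 0.5% phosphoric acid wash.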

Lyn = target: T2, Lyn (Homo sapiens, UniProt P07948); assay: Kinase inhibition assay (33P transfer), Lyn; conditions: Table 6, Lyn-1 kinase inhibition class
T2 construct: Kinases are expressed as either kinase domains or full length constructs; made in house
Procedure, shortened: (§2)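 Steps: coat wells with poly(Glu,Tyr) 4:1 or poly(Arg,Ser) 3:1; add purified kinase, [33P]ATP and inhibitor; incubate; wash with 0.5% phosphoric acid; add liquid scintillant; count. IC50 corresponds to half-maximal reduction of bound 33P.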

Zap-70 = target: T3, Zap-70 (Homo sapiens, UniProt P43403); assay: Kinase inhibition assay (33P transfer), Zap-70; conditions: Table 3; read-out: Zap-1
T3 construct: Kinases are expressed as either kinase domains or full length constructs; made in house
T3 sequence (P43403 1-619): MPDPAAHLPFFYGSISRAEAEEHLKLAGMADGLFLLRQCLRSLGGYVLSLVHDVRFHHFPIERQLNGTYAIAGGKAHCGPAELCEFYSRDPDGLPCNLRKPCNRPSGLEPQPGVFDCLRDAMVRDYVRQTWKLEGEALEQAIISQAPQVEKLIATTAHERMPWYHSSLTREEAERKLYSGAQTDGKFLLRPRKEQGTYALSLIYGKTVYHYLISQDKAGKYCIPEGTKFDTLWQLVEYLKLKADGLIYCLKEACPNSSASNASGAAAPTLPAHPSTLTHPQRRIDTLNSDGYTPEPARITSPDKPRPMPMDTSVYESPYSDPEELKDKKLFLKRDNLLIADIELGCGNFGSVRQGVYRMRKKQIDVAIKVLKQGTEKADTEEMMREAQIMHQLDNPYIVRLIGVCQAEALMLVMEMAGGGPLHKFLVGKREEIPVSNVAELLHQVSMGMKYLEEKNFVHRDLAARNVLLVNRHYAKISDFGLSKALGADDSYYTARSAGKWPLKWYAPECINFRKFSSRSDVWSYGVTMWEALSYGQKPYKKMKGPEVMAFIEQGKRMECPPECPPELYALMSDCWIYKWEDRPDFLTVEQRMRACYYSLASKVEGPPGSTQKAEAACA
Procedure, shortened: as §1

Kdr = target: T4, Kdr (Homo sapiens, UniProt P35968); assay: Kinase inhibition assay (33P transfer), Kdr; conditions: Table 3; read-out: KDR-1
T4 construct: Kinases are expressed as either kinase domains or full length constructs; made in house
Procedure, shortened: as §1

Flt-1 = target: T5, Flt-1 (Homo sapiens, UniProt P17948); assay: Kinase inhibition assay (33P transfer), Flt-1
T5 construct: Kinases are expressed as either kinase domains or full length constructs; made in house
Procedure, shortened: as §2

c-Met = target: T6, c-Met (Homo sapiens, UniProt P08581); assay: Kinase inhibition assay (33P transfer), c-Met; conditions: Table 2, kinase inhibition class; read-out: Met-1
T6 construct: Kinases are expressed as either kinase domains or full length constructs; made in house
Procedure, shortened: as §2

AKT = target: T7, AKT (Homo sapiens, UniProt Q9Y243); assay: Kinase inhibition assay (33P transfer), AKT; conditions: Table 2, kinase inhibition class; read-out: AKT3-1
T7 construct: Kinases are expressed as either kinase domains or full length constructs; made in house
Procedure, shortened: as §1

IGFR-1 = target: T8, IGFR-1 (Homo sapiens, UniProt P08069); assay: Kinase inhibition assay (33P transfer), IGFR-1; conditions: Table 2, kinase inhibition class
T8 construct: Kinases are expressed as either kinase domains or full length constructs; made in house

PDGFRB = target: T9, PDGFRB (Homo sapiens, UniProt P09619); assay: Kinase inhibition assay (33P transfer), PDGFRB; conditions: read-out: PDGFRB-1
T9 construct: Kinases are expressed as either kinase domains or full length constructs; made in house

Hck-1 = target: T10, Hck-1 (Homo sapiens, UniProt P08631); assay: Kinase inhibition assay (33P transfer), Hck; conditions: Table 6, Hck-1 kinase inhibition class
T10 construct: Kinases are expressed as either kinase domains or full length constructs; made in house

FGFR1 = target: T11, FGFR1 (Homo sapiens, UniProt P11362); assay: Kinase inhibition assay (33P transfer), FGFR1; conditions: read-out: FGFR1-1
T11 construct: Kinases are expressed as either kinase domains or full length constructs; made in house

T2 sequence (P07948 whole entry, species assumed, the tested form may be a part): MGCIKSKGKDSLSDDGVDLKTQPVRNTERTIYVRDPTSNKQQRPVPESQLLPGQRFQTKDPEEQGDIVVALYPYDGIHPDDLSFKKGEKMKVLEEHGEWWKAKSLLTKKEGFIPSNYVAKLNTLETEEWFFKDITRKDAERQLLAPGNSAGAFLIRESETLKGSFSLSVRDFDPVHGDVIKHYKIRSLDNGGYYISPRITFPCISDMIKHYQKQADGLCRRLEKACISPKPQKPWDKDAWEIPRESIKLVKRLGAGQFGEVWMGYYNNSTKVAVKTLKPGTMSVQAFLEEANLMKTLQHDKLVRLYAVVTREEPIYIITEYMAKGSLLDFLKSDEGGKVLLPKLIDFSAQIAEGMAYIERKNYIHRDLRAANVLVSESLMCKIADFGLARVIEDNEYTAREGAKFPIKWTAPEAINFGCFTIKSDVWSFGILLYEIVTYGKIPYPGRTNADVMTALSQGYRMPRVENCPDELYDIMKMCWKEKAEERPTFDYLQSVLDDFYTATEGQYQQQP
T1 sequence (P06239 whole entry, species assumed, the tested form may be a part): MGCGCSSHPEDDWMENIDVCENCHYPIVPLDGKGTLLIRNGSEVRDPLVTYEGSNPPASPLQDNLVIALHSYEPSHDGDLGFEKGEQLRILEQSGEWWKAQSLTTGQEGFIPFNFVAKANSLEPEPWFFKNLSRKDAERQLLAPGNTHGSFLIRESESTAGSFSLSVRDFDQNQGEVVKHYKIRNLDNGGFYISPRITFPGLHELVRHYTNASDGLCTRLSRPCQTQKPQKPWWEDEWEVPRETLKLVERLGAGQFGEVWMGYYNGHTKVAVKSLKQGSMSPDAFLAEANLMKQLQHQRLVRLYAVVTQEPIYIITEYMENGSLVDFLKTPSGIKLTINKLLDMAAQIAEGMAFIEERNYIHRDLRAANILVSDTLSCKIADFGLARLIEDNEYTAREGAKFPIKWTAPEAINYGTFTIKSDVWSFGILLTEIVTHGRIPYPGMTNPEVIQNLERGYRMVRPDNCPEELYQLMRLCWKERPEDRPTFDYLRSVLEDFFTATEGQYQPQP
T7 sequence (Q9Y243 whole entry, the tested form may be a part): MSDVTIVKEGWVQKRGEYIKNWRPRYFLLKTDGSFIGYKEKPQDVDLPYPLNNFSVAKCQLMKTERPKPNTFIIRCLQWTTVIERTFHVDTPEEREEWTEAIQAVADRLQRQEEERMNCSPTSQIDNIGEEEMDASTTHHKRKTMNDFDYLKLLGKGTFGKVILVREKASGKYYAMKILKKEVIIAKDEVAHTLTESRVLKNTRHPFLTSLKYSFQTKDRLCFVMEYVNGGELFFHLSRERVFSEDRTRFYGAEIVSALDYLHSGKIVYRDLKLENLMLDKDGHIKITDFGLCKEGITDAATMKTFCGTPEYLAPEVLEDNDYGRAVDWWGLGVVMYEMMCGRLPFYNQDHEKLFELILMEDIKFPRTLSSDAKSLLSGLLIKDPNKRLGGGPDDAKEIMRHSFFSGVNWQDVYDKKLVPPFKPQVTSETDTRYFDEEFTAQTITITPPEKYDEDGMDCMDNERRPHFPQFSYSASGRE
T6 sequence (P08581 25-1390): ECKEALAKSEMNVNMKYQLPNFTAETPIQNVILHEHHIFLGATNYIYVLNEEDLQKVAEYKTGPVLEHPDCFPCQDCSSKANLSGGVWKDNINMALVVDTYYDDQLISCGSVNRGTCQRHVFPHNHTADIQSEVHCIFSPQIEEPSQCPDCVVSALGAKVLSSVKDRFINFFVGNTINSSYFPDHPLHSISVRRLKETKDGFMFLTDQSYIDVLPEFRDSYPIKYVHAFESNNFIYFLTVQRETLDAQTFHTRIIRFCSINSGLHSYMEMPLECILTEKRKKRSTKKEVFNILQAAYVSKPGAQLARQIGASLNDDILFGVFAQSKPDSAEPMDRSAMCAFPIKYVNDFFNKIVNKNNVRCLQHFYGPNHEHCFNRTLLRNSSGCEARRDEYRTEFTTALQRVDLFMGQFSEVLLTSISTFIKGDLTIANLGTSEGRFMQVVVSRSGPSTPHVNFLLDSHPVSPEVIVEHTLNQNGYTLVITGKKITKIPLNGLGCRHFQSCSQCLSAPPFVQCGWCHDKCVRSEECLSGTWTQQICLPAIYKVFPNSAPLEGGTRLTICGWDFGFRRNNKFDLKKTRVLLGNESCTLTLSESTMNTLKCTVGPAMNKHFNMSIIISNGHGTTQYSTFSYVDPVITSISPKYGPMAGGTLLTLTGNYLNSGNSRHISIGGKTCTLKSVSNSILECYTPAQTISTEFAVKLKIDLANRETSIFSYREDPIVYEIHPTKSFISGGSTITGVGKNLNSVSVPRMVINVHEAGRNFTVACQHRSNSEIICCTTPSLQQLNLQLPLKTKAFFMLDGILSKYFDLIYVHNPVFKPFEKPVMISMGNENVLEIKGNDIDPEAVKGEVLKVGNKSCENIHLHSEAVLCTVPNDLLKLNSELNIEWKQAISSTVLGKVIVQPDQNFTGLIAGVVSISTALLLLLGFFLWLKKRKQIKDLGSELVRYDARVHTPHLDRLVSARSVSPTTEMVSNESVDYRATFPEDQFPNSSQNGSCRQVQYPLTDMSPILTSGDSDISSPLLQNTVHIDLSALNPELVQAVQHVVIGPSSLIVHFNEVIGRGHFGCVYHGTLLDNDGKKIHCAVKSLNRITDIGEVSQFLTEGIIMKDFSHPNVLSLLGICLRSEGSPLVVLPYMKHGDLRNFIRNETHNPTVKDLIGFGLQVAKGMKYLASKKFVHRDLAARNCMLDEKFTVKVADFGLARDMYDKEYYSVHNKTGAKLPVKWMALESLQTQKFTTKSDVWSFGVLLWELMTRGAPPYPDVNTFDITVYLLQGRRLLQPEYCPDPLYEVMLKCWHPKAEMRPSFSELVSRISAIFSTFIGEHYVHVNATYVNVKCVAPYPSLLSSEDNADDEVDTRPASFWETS
T10 sequence (P08631 whole entry, the tested form may be a part): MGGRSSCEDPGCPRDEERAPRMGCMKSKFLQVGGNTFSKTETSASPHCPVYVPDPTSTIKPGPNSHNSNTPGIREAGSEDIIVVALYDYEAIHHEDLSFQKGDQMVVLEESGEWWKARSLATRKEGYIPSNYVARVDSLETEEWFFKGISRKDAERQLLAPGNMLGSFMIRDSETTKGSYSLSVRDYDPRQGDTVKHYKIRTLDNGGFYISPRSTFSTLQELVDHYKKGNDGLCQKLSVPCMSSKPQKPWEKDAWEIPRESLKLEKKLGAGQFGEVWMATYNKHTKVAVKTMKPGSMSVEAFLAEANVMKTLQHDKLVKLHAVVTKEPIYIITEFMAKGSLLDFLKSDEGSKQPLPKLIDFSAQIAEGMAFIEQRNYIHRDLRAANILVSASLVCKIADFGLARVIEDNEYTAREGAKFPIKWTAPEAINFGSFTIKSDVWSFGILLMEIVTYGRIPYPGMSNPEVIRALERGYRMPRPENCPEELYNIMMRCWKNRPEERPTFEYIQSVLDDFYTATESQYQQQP
T5 sequence (P17948 27-1338, species assumed): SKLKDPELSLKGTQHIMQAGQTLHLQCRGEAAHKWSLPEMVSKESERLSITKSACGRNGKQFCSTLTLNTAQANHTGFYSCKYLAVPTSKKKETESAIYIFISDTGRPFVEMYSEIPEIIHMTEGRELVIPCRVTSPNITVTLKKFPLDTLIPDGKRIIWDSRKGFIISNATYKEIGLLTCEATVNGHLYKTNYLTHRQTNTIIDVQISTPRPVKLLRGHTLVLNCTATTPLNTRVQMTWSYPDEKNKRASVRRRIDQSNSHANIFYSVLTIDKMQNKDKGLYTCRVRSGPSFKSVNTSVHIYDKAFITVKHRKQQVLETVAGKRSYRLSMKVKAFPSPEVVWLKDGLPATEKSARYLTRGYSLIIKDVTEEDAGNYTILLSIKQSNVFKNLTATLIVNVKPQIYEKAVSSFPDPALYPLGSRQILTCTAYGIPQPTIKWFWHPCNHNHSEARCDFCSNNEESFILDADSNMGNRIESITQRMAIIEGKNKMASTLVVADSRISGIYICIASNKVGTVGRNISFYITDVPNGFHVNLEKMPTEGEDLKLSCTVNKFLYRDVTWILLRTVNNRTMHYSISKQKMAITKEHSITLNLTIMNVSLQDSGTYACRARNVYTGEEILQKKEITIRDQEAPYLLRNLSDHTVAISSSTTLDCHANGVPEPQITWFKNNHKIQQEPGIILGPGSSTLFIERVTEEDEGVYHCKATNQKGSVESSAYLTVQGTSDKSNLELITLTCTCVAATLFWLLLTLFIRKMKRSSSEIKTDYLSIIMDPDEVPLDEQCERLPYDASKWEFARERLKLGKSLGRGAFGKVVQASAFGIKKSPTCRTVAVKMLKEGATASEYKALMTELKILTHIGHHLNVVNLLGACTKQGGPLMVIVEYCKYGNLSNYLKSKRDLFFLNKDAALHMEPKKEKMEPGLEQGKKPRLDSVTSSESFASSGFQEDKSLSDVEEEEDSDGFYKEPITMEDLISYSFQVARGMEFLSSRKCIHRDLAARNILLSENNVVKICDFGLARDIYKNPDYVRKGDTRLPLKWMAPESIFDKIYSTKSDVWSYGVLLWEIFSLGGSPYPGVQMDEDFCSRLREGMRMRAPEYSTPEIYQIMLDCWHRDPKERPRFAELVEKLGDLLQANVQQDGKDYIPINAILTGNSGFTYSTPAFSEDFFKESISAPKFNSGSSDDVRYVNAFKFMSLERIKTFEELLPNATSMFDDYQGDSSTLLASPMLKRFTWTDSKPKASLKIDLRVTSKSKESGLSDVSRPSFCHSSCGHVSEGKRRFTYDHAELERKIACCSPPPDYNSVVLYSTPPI

Row | SMILES | IC50 (Lck) | IC50 (Lyn) | IC50 (Zap-70) | IC50 (Kdr) | IC50 (Flt-1) | IC50 (c-Met) | IC50 (AKT) | IC50 (IGFR-1) | IC50 (PDGFRB) | IC50 (Hck-1) | IC50 (FGFR1)
1 | COc1cc(Nc2ncnc(-n3c(NC(C)=O)nc4ccccc43)n2)cc(OC)c1OC [Compound 334] | 8.04 to 10.3 µM | > 10.3 µM | > 10.3 µM | 0.919 to 5.51 µM | 0.919 to 5.51 µM | > 10.3 µM | 5.51 to 8.04 µM | < 0.919 µM | 0.919 to 5.51 µM | > 10.3 µM | 0.919 to 5.51 µM
2 | COc1cc(Nc2ncnc(N(c3ccccc3)c3nc4ccccc4[nH]3)n2)cc(OC)c1OC [Compound 335] | 0.852 to 5.11 µM | 0.852 to 5.11 µM | > 9.58 µM | < 0.852 µM | 0.852 to 5.11 µM | > 9.58 µM | > 9.58 µM | > 9.58 µM | 7.45 to 9.58 µM | > 9.58 µM | 7.45 to 9.58 µM
3 | COc1ccc(Nc2ncnc(Nc3cc(-c4ccco4)n[nH]3)n2)cc1OC [Compound 337] | 1.05 to 6.33 µM | 1.05 to 6.33 µM | > 11.9 µM | < 1.05 µM | < 1.05 µM | < 1.05 µM | > 11.9 µM | < 1.05 µM | 1.05 to 6.33 µM | > 11.9 µM | < 1.05 µM
4 | COc1ccc2c(c1)c(CCNC(C)=O)cn2-c1ncnc(Nc2cc(OC)c(OC)c(OC)c2)n1 [Compound 339] | > 9.14 µM | > 9.14 µM | > 9.14 µM | < 0.812 µM | > 9.14 µM | > 9.14 µM | > 9.14 µM | > 9.14 µM | < 0.812 µM | > 9.14 µM | > 9.14 µM
5 | c1coc(-c2cc(Nc3ncnc(Nc4ccc(N5CCOCC5)cc4)n3)[nH]n2)c1 [Compound 340] | 0.989 to 5.93 µM | 0.989 to 5.93 µM | > 11.1 µM | < 0.989 µM | < 0.989 µM | < 0.989 µM | 5.93 to 8.65 µM | < 0.989 µM | 8.65 to 11.1 µM | > 11.1 µM | 0.989 to 5.93 µM
6 | NC(=O)c1cccc(Nc2ncnc(Nc3cc(-c4ccco4)n[nH]3)n2)c1 [Compound 342] | 1.1 to 6.62 µM | 1.1 to 6.62 µM | > 12.4 µM | < 1.1 µM | < 1.1 µM | 1.1 to 6.62 µM | > 12.4 µM | 1.1 to 6.62 µM | 1.1 to 6.62 µM | 6.62 to 9.66 µM | < 1.1 µM
7 | COc1cc(Nc2ncnc(N3CCCc4ccccc43)n2)cc(OC)c1OC [Compound 609] | < 1.02 µM | < 1.02 µM | > 11.4 µM | < 1.02 µM | < 1.02 µM | 1.02 to 6.1 µM | > 11.4 µM | > 11.4 µM | < 1.02 µM | > 11.4 µM | < 1.02 µM
8 | COc1ccc(Nc2ccc(Nc3ncnc(Nc4cc(OC)c(OC)c(OC)c4)n3)cc2)cc1 [Compound 922] | 0.843 to 5.06 µM | < 0.843 µM | 5.06 to 7.38 µM | < 0.843 µM | 5.06 to 7.38 µM | 5.06 to 7.38 µM | 0.843 to 5.06 µM | 0.843 to 5.06 µM | 0.843 to 5.06 µM | > 9.48 µM | 0.843 to 5.06 µM
9 | COc1cc(Nc2ncnc(Nc3ccc(C)c(N)c3)n2)cc(OC)c1OC [Compound 935] | 1.05 to 6.28 µM | < 1.05 µM | > 11.8 µM | < 1.05 µM | 1.05 to 6.28 µM | > 11.8 µM | > 11.8 µM | 1.05 to 6.28 µM | < 1.05 µM | 6.28 to 9.15 µM | 1.05 to 6.28 µM

Now from value to compound:

Row | IC50 (Lck) | IC50 (Lyn) | IC50 (Zap-70) | IC50 (Kdr) | IC50 (Flt-1) | IC50 (c-Met) | IC50 (AKT) | IC50 (IGFR-1) | IC50 (PDGFRB) | IC50 (Hck-1) | IC50 (FGFR1) | SMILES
10 | 0.857 to 5.14 µM | < 0.857 µM | > 9.64 µM | 0.857 to 5.14 µM | 0.857 to 5.14 µM | > 9.64 µM | > 9.64 µM | < 0.857 µM | < 0.857 µM | 5.14 to 7.5 µM | 0.857 to 5.14 µM | COc1cc(Nc2ncnc(Nc3ccc(Br)c(Cl)c3)n2)cc(OC)c1OC [Compound 936]
11 | 1.04 to 6.23 µM | < 1.04 µM | > 11.7 µM | < 1.04 µM | 9.08 to 11.7 µM | 6.23 to 9.08 µM | > 11.7 µM | < 1.04 µM | < 1.04 µM | > 11.7 µM | > 11.7 µM | COc1cc(Nc2ncnc(Nc3ccc(C)cc3F)n2)cc(OC)c1OC [Compound 937]
12 | > 11 µM | > 11 µM | > 11 µM | < 0.982 µM | 0.982 to 5.89 µM | > 11 µM | > 11 µM | 5.89 to 8.59 µM | 0.982 to 5.89 µM | > 11 µM | 0.982 to 5.89 µM | COc1cc(Nc2ncnc(Nc3nc4ccccc4n3C)n2)cc(OC)c1OC [Compound 938]
13 | > 13.3 µM | > 13.3 µM | > 13.3 µM | < 1.18 µM | 7.09 to 10.3 µM | > 13.3 µM | > 13.3 µM | > 13.3 µM | 7.09 to 10.3 µM | > 13.3 µM | > 13.3 µM | COc1cc(Nc2ncnc(-c3ccccc3)n2)cc(OC)c1OC [Compound 970]
14 | 0.935 to 5.61 µM | < 0.935 µM | > 10.5 µM | < 0.935 µM | 0.935 to 5.61 µM | 0.935 to 5.61 µM | > 10.5 µM | 5.61 to 8.18 µM | < 0.935 µM | > 10.5 µM | 0.935 to 5.61 µM | C=CCN(c1ccc(Cl)cc1)c1ncnc(Nc2cc(OC)c(OC)c(OC)c2)n1 [Compound 972]
15 | 5.06 to 7.38 µM | 5.06 to 7.38 µM | > 9.49 µM | 0.844 to 5.06 µM | > 9.49 µM | > 9.49 µM | > 9.49 µM | > 9.49 µM | > 9.49 µM | > 9.49 µM | 5.06 to 7.38 µM | COc1ccc(Nc2ncnc(N(C/C=C/c3ccccc3)c3ccc(Cl)cc3)n2)cc1OC [Compound 974]
